One series concerns MCF-10A cells. The experiment in a line: SRB in vitro cytotoxicity assay, MCF-10A. Format: cell-based. Particulars: Homo sapiens, read-out: IC50 against MCF-10A cells. The procedure: (§1) Human breast cancer cell line [MCF-7, ER^+ (ATCC, HTB-22TM)] was cultured in Dulbecco's Modified Eagle Medium (DMEM) (Invitrogen, Carlsbad, CA, USA) supplemented with 10% Fetal bovine serum (FBS), 100 U/mL of penicillin, 0.1 mg/mL streptomycin, and 0.01 mg/mL insulin. Normal mammary epithelial cell line [MCF-10A (ATCC® CRL-10317)] was grown in Mammary Epithelium Basal Medium (MEBM) (Lonza, Walkersville, MD, USA). Both MCF-7 and MCF-10A cells were maintained in a humidified incubator at 37°C with 5% CO2. All the cell lines and 10% FBS were purchased from the American type cell culture (ATCC), Rockville, MD, USA. All chemicals were purchased from Sigma-Aldrich (St. Louis, MO, USA) unless otherwise specified.
(§2) MCF-7 and MCF-10A cells were trypsinized using […] trypsin/EDTA, plated in cell culture treated 96-well plates (5 x 10^3 cells/ well) and incubated for 24 h. After incubation, cells were treated with govaniadine (1, 2, 4, 8, or 16 μM) and maintained at 37°C with CO2 for 24, 48, or 72 h. After the incubation period, Sulforhodamine B (SRB) assay was performed as described previously to assess cell viability. Absorbance was read at optical density (OD) 540 nm (Synergy™ HT, BioTek, USA) and percentage cell viability was calculated. Negative controls contained only 0.1% DMSO and medium whereas paclitaxel was used as the positive control.

Series [1] deals with MCF-7 cells. The experiment in a line: SRB in vitro cytotoxicity assay, MCF-7. Format: cell-based, human. The following applies: for IC50: Homo sapiens, MCF7, SRB assay, read-out: IC50 (dose causing 50% inhibition) of MCF-7 cells. The procedure: as §1, §2
The subject of another series is Bax mRNA. The experiment in a line: RT-qPCR Bax mRNA expression in MCF-7 cells. Particulars: 24 h incubation. Format: cell-based, human. The procedure: (§3) Cells were grown in T25 flasks (2 x 10^5 cells/mL) for 24 h at 37°C in 5% CO2 and treated with govaniadine (1 and 2 μM) in triplicate and incubated for further 24 h. Control cells were treated with 0.1% DMSO. After 24 h, cells were harvested and total RNA was extracted with TRIzol® Reagent (Invitrogen; Thermo Fisher Scientific, Inc., Carlsbad, CA, USA) according to the manufacturer's protocol. cDNA synthesis and RT-qPCR were performed as described previously. RT-qPCR was performed in Stratagene Mx3000P real time PCR machine using MESA Green qPCR Master Mix Plus for SYBR Assay (Eurogentec, Seraing, Liège, Belgium). Data were normalized to an internal reference gene GAPDH, and relative gene expression was assessed using the comparative Ct method (2^−ΔΔCt).
(Quantitative PCR measures a nucleic acid by following its amplification.)

Series [2] relates to MCF-7 cells. The experiment in a line: Intracellular glutathione (GSH) measurement. The following applies: 1 and 2 μM, 24 h, vs control. Format: cell-based, human. On the procedure:
(§4) MCF-7 cells were seeded (2x10^5 cell/mL) in 24-well plates and maintained for 24 h at 37°C in 5% CO2. Then the cells were exposed to different concentrations of govaniadine (1 and 2 μM) for further 24 h. Control cells were treated with 0.1% DMSO. After 24 h, cells were trypsinized and pelleted. Cell suspension of approximately 10^6 cells per mL in an appropriate buffer was prepared and homogenized using sonication in ice. Cell homogenate was transferred to 1.5 mL eppendorf tubes and centrifuged at 15,000 rpm for 10 min at 4°C. The resulting supernatant (cell lysate) was transferred to a new 1.5 mL micro centrifuge tube and kept on ice. Total amount of protein present in the cell lysate was determined using bovine serum albumin (BSA) as the standard. Reduced GSH was estimated as described previously. The activity of GST was determined as described by. Intracellular GSH and GST levels were expressed as μM/mg of cell lysate protein.

The test system of series [3] is MCF-7 cells. The experiment in a line: Cell morphology and nuclear changes by AO/EB and Hoechst staining. Format: cell-based, human. Particulars: 2-16 μM, 24 h. On the procedure:
MCF-7 cells harvested by trypsinization upon reaching 70-80% confluence were seeded (5x10^4 cells/well) on cell culture treated cover slips placed in a 24-well cell culture plate and exposed to different concentrations (2, 4, 8, and 16 μM) of govaniadine for 24 h at 37°C in 5% CO2. Control cells were treated with 0.1% DMSO. After 24 h, cells were fixed with 4% formaldehyde, and AO/EB solution (10 μL) and Hoechst stain (0.005 mg/mL, 10 μL) were added for 2–5 min. Cells were then observed under a fluorescence microscope (Olympus Co., Tokyo, BX51TRF, Japan).

The subject of series [4] is MCF-7 cells. The experiment in a line: Reactive oxygen species (NBT) assay. The following applies: 1 and 2 μM, 24 h, vs control. Format: cell-based, human. On the procedure:
MCF-7 cells were seeded (2x10^5 cell/mL) in 96-well plates for 24 h at 37°C in 5% CO2. After 24 h, MCF-7 cells were treated with govaniadine (1 and 2 μM) in triplicate and incubated for 24 h. Control cells were treated with 0.1% DMSO. An assay for the intracellular conversion of nitro blue tetrazolium (NBT) to formazan by superoxide anion was used to measure the generation of reactive oxygen species in cells. NTB was subsequently added at a final concentration of 1.2 mM to the wells and incubated in the dark for 1 h at 37°C. The formazan content of the cells was then solubilized with […] of DMSO, and the absorbance was measured at OD 630 nm (Synergy™ HT Multi-Mode Microplate Reader).

Another series deals with p53 mRNA. The experiment in a line: RT-qPCR p53 mRNA expression in MCF-7 cells. Format: cell-based, human. The following applies: 24 h incubation. The procedure:
as §3

Series [5] deals with MCF-7 cells. The experiment in a line: Cell morphology by phase contrast light microscopy. The following applies: 1-16 μM, 24, 48 and 72 h. Format: cell-based, human. On the procedure:
To determine the effect of govaniadine on the morphology of MCF-7 cells, cells (2x10^5 cells/mL) maintained in DMEM for 24 h were exposed to different concentrations (1, 2, 4, 8, and 16 μM) of govaniadine for further 24, 48, or 72 h at 37°C in 5% CO2. Control cells were treated with 0.1% DMSO. After the incubation period, morphological changes of the cells were observed and photographed on an inverted phase contrast microscope (Olympus CKX41SF, Japan).

The subject of series [6] is MCF-7 cells. The experiment in a line: DNA fragmentation analysis (gel electrophoresis). Format: cell-based, human. Particulars: MCF-7 cells, 4, 8, 16 μM, 48 or 72 h. The procedure:
MCF-7 cells (2x10^5 cell/mL) were treated with 4, 8, and 16 μM doses of govaniadine incubated for 48 or 72 h, respectively. Medium containing 0.1% DMSO and thymoquinone were used as negative and positive controls, respectively. After the incubation period, DNA fragmentation was analyzed as described by. Gel electrophoresis was carried out with extracted DNA and visualized under UV light to assess the effect on DNA fragmentation (Quantum-ST4 1100/20 M; Fisher Biotec Pty Ltd., Wembley, Australia) following electrophoresis on a 2.0% agarose gel stained with ethidium bromide (EB).

Series [7] deals with MCF-7 cells. The experiment in a line: Intracellular glutathione S-transferase (GST) measurement. Format: cell-based, human. Particulars: 1 and 2 μM, 24 h, vs control. On the procedure: as §4
The subject of another series is caspase-7. The experiment in a line: Caspase-Glo 3/7 assay of caspase 7 activity in MCF-7 cells. Format: cell-based, human. Particulars: 1 μM (P<0.05) and 2 μM (P<0.01), 24 h, vs control. The procedure: MCF-7 cells (2 x 10^5 cells/mL) were seeded in 96-well plates and maintained for 24 h at 37°C in 5% CO2. After 24 h, cells were exposed to govaniadine (1 and 2 μM) for further 24 h. Control cells were treated with 0.1% DMSO. Caspase-Glo® 3/7 assay (Promega, Madison, WI, USA) was used to measure caspase 7 activity according to the manufacturer's instructions, and luminescence was measured using a luminescence plate reader (Synergy™ HT, BioTek, USA).

The subject of a further series is Survivin mRNA. The experiment in a line: RT-qPCR survivin mRNA expression in MCF-7 cells. Format: cell-based, human. Particulars: 24 h incubation. On the procedure: as §3
Series [8] concerns MCF-7 cells. The experiment in a line: Annexin V/PI flow cytometry apoptosis detection. Format: cell-based, human. Particulars: 24 h; for early apoptotic cells: upper left quadrant; for late apoptotic cells: upper right quadrant. The procedure:
MCF-7 cells (2x10^5 cell/mL) cultured in T25 cell culture flasks for 24 h at 37°C in 5% CO2 were exposed to govaniadine (4, 8, and 16 μM) for further 24 h. Control cells were treated with 0.1% DMSO. After 24 h, apoptosis mediated by the govaniadine on MCF-7 cells was detected by the Annexin V/ Propidium Iodide (PI) apoptosis detection kit (Santa Cruz, Texas, USA) according to the manufacturer's instructions by using a Partec Cyflow® Cube 6 Flow Cytometer. The data was analyzed with De Novo FCS Express version 4 software, and all experiments to detect apoptosis were done in triplicate.
A general note: In flow cytometry, cells or beads pass a laser one at a time.

Read-outs that look alike come from different tables or passages of the source.

Regarding `CC(=O)O[C@H]1C(=O)[C@@]2(C)[C@H]([C@H](OC(=O)c3ccccc3)[C@]3(O)C[C@H](OC(=O)[C@H](O)[C@@H](NC(=O)c4ccccc4)c4ccccc4)C(C)=C1C3(C)C)[C@]1(OC(C)=O)CO[C@@H]1C[C@@H]2O` [paclitaxel, reference compound], the IC50 (usually the concentration at which inhibition is half-maximal) in the series with MCF-10A cells (24 h postincubation) was determined as 11.9 ± 1.5 µM; in the series with MCF-10A cells (48 h postincubation) it was 6.06 ± 2.45 µM; in the series on MCF-10A cells (72 h postincubation), 3.11 ± 1.98 µM; in the series with MCF-7 cells [1] (24 h postincubation) it was 2.21 ± 0.15 µM; with MCF-7 cells [1] (48 h postincubation), 0.13 ± 0.05 µM; in the series on MCF-7 cells [1] (72 h postincubation) it was 0.0089 ± 0.006 µM.

For the compound `COc1ccc2c(c1O)C1Cc3cc4c(cc3CN1CC2)OCO4` (stereo not drawn) [govaniadine], the “Bax mRNA fold change” value in the series on Bax mRNA (1 μM) is on record as 5.07 fold; in the series on Bax mRNA (2 μM), 11.66 fold. Further, the “Intracellular GSH level” value in the series with MCF-7 cells [2] is “decreased significantly”. In the series with MCF-7 cells [3], the “Nuclear changes (Hoechst 33258 staining)” value is “Nuclei with brighter hypercondensed chromatin”. The half-inhibitory concentration (IC50) is 269 ± 0.25 µM with MCF-10A cells (24 h postincubation); 223.4 ± 0.32 µM in the series on MCF-10A cells (48 h postincubation); 194.9 ± 0.24 µM with MCF-10A cells (72 h postincubation); 3.05 ± 0.27 µM with MCF-7 cells [1] (24 h postincubation); 2.52 ± 0.31 µM with MCF-7 cells [1] (48 h postincubation); 1.6 ± 0.23 µM in the series with MCF-7 cells [1] (72 h postincubation). In addition, in the series with MCF-7 cells [1] (comparison of IC50 values in MCF-7 and MCF-10A with reference drug), the “Selectivity of cytotoxicity, MCF-7 versus MCF-10A cells” value is listed as “more selective towards MCF-7 cells than the paclitaxel”. Further, the ROS production result in the series on MCF-7 cells [4] is “dose-dependent significant (p<0.05) increase”. The “p53 mRNA fold change” value in the series with p53 mRNA (1 μM) is given as 11.37 fold; with p53 mRNA (2 μM), 15.42 fold. Moreover, the “Morphological changes (phase contrast microscopy)” value in the series on MCF-7 cells [5] was “increased the number of apoptotic cells”. In addition, the DNA fragmentation result with MCF-7 cells [6] is “DNA fragmentation in a time- and dose-dependent manner”. Moreover, the GST level entry with MCF-7 cells [7] is “increased significantly”. Also, the Caspase-7 activity result in the series with caspase-7 was “activated significantly”. Moreover, in the series with Survivin mRNA (1 μM), the “survivin mRNA fold increase” value was found to be 9.08 fold. In the series on Survivin mRNA (2 μM), the survivin gene expression entry is “not regulated”. Also, the early apoptotic cells in the series with MCF-7 cells [8] (4 μM) stood at 3.31%; in the series with MCF-7 cells [8] (16 μM) it was 7.33%. Besides, the figures for the late apoptotic cells with MCF-7 cells [8] (4 μM) and in the series with MCF-7 cells [8] (16 μM) were 11.15% and 41.42%, respectively. For the same compound, the viability at 4 µM in the series with MCF-7 cells [8] (Homo sapiens, MCF7, 4 μM, lower left quadrant, read-out: intact viable cells) worked out at 78.6%. Besides, the viability at 8 µM with MCF-7 cells [8] (Homo sapiens, MCF7, 8 μM, lower left quadrant, read-out: intact viable cells) came to 61.1%. The viability at 16 µM in the series on MCF-7 cells [8] (Homo sapiens, MCF7, 16 μM, lower left quadrant, read-out: intact viable cells) was found to be 36.8%.
